Assays:
Aurora-A (h) = target: T1, Aurora-A (h) (Homo sapiens, UniProt O14965); assay: Aurora-A (h) kinase assay; format: biochemical
T1 construct: purchased Millipore UK Ltd (contract assay service)
T1 sequence (O14965 1-403): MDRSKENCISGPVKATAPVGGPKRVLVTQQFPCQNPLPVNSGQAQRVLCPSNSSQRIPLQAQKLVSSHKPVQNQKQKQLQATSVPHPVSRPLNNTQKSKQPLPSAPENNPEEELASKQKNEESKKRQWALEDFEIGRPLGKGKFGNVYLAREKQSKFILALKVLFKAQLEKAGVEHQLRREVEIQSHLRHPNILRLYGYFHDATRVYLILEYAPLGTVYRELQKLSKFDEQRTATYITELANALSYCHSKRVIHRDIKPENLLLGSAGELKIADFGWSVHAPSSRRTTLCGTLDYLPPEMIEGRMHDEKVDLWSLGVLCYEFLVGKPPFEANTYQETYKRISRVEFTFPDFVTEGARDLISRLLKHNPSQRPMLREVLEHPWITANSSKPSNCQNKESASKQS
Summary of the method: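 Human Aurora-A incubated with 200 μM Kemptide, 10 mM Mg acetate, [γ-33P]ATP in 8 mM MOPS pH 7.0 for 40 min at room temperature; stopped with phosphoric acid, spotted on P30 filtermat and scintillation counted. IC50 from 10-point ½-log dilution series.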

JAK1 (h) = target: T2, JAK1 (h) (Homo sapiens, UniProt P23458); assay: JAK1 (h) kinase assay; format: biochemical
T2 construct: purchased Millipore UK Ltd (contract assay service)
Protocol: Kinase assays can be performed by measurement of incorporation of γ-^33P ATP into immobilized myelin basic protein (MBP). High binding white 384 well plates (Greiner) are coated with MBP (Sigma #M-1891) by incubation of 60 μL/well of 20 μg/mL MBP in Tris-buffered saline (TBS; 50 mM Tris pH 8.0, 138 mM NaCl, 2.7 mM KCl) for 24 h at 4° C. Plates are washed 3× with 100 μL TBS. Kinase reactions are carried out in a total volume of 34 μL in kinase buffer (according to the need to make, for example, 5 mM Hepes pH 7.6, 15 mM NaCl, 0.01% bovine gamma globulin (Sigma #1-5506), 10 mM MgCl2, 1 mM DTT, 0.02% TritonX-100). Compound dilutions are performed in DMSO and added to assay wells to a final DMSO concentration of 1%. Each data point is measured in duplicate, and at least two duplicate assays are performed for each individual compound determination. Enzyme is added to final concentrations of 10 nM or 20 nM, for example. A mixture of unlabeled ATP and γ-^33P ATP is added to start the reaction (2×10^6 cpm of γ-^33P ATP per well (3000 Ci/mmole) and 10 μM unlabeled ATP, typically. The reactions are carried out for 1 h at room temperature with shaking. Plates are washed 7× with TBS, followed by the addition of 50 µL/well scintillation fluid (Wallac). Plates are read using a Wallac Trilux counter. This is only one format of such assays; various other formats are possible, as known to one skilled in the art.
The above assay procedure can be used to determine the IC50 for inhibition and/or the inhibition constant, Ki. The IC50 is defined as the concentration of compound required to reduce the enzyme activity by 50% under the condition of the assay. The IC50 value is estimated by preparing a 10 point curve using a 1/2 log dilution series (for example, a typical curve may be prepared using the following compound concentrations: 3 μM, 1 μM, 0.3 μM, 0.1 μM, 0.03 μM, 0.01 μM, 0.003 μM, 0.001 μM, 0.0003 μM and 0 μM).
JAK1 (h) is incubated with 20 mM Tris/HCl pH 7.5, 0.2 mM EDTA, 500 μM GEEPLYWSFPAKKK, 10 mM MgAcetate and [γ-^33P-ATP] (specific activity approx. 500 cpm/pmol, concentration as required). The reaction is initiated by the addition of the MgATP mix. After incubation for 40 minutes at room temperature, the reaction is stopped by the addition of 3% phosphoric acid solution. 10 μL of the reaction is then spotted onto a P30 filtermat and washed three times for 5 minutes in 75 mM phosphoric acid and once in methanol prior to drying and scintillation counting.
The kinase assays described herein were performed at Millipore UK Ltd, Dundee Technology Park, Dundee DD2 1SW, UK.

[1] = Compound stability in human liver microsomes; format: in vitro ADME; conditions: pH 7.4; for half-life at 5 μM: human liver microsomes 0.5 mg protein/mL, compound 5 μM, NADPH, 37° C., read-out: Human T1/2; for CLint scaled at 5 μM: human liver microsomes, in vivo CLint extrapolated
Summary of the method: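 After a 3-min preincubation, reactions of 5 μM compound with NADPH (1.0 mM) were started by adding microsomal protein to 0.5 mg/mL and run at 37° C in pH 7.4 phosphate buffer. Aliquots were stopped with ice-cold acetonitrile at up to 60 min. Parent levels were then measured by LC/MS/MS.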

T2 sequence (P23458 whole entry): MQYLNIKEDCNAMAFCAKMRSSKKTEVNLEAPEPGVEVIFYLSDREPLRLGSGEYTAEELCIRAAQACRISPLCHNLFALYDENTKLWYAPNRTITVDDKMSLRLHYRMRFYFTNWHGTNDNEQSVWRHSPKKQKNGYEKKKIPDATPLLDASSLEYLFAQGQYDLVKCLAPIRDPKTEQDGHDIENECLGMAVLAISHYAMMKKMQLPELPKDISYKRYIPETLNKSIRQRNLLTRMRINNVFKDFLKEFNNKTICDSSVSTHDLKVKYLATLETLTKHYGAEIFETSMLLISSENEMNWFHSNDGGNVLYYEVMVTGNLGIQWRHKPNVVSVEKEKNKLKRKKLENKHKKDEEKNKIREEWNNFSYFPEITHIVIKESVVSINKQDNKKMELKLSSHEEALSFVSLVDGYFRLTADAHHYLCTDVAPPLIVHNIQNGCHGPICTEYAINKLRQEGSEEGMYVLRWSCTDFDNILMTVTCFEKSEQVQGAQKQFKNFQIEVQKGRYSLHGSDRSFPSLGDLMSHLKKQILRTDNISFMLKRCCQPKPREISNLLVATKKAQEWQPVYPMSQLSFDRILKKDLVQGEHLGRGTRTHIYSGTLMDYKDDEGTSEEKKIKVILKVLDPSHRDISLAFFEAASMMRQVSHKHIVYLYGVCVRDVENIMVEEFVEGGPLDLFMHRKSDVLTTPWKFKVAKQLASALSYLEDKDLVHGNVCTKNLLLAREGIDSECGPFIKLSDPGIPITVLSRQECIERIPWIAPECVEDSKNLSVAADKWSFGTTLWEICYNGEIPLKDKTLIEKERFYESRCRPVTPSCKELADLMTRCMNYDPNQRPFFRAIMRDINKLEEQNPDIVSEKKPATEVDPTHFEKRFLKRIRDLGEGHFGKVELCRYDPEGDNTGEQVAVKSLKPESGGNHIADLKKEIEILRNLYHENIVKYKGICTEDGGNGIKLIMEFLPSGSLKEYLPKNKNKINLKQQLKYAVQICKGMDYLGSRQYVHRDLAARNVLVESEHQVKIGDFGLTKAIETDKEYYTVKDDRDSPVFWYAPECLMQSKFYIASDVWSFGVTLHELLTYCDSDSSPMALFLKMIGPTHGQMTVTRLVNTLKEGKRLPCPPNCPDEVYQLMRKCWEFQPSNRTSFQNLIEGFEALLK

Compound | IC50 (Aurora-A (h)) [nM] | IC50 (JAK1 (h)) [nM] | half-life at 5 μM [1] [h] | CLint scaled at 5 μM [1] [mL/min/kg]
Cn1cc(Nc2ncc(Cl)c(N[C@@H]3COC4C3OC[C@@H]4NS(=O)(=O)CC(F)(F)F)n2)cn1 (stereo partly drawn) [Ex. 27, N-((3S,6R)-6-((5-chloro-2-((1-methyl-1H-pyrazol-4-yl)amino)pyrimidin-4-yl)amino)hexahydrofuro[3,2-b]furan-3-yl)-2,2,2-trifluoroethanesulfonamide] | 39 | 7 | 3.16 | 9.16
Cn1cc(Nc2ncc(Cl)c(N[C@@H]3COC4C3OC[C@@H]4NS(=O)(=O)CC3CC3)n2)cn1 (stereo partly drawn) [Ex. 25, N-((3S,6R)-6-((5-chloro-2-((1-methyl-1H-pyrazol-4-yl)amino)pyrimidin-4-yl)amino)hexahydrofuro[3,2-b]furan-3-yl)-1-cyclopropylmethanesulfonamide] | 5 | 27 | 1.39 | 20.8
Cn1cc(Nc2ncc(Cl)c(N[C@@H]3COC4C3OC[C@@H]4NS(=O)(=O)CC(C)(C)C#N)n2)cn1 (stereo partly drawn) [Ex. 26, N-((3S,6R)-6-((5-chloro-2-((1-methyl-1H-pyrazol-4-yl)amino)pyrimidin-4-yl)amino)hexahydrofuro[3,2-b]furan-3-yl)-2-cyano-2-methylpropane-1-sulfonamide] | 6 | 94 | 0.561 | 51.7
CC(C)CS(=O)(=O)N[C@H]1COC2C1OC[C@H]2Nc1nc(Nc2cnn(C)c2)ncc1Cl (stereo partly drawn) [Ex. 2, N-((3S,6R)-6-((5-chloro-2-((1-methyl-1H-pyrazol-4-yl)amino)pyrimidin-4-yl)amino)hexahydrofuro[3,2-b]furan-3-yl)-2-methylpropane-1-sulfonamide] | 20 | 43 | 0.617 | 47

— patent US20170081338A1, “SUBSTITUTED HETEROARYL COMPOUNDS AND METHODS OF USE” (Sunshine Lake Pharma Co., Ltd., priority 2015, published 2017)
